These sequences were tested on antigen-specific CTLs (CD8+ T cells) against T2 cells pulsed with CD133 HLA-A2 peptides (assay: IFN-γ ELISPOT assay of antigen-specific T cell response). Conditions: peptide-induced CTLs co-cultured with T2 cells pulsed with 10 μg/ml of peptides for 20 hours, compared with T2 control (no peptides); FIG. 3.
Format: cell-based, human
Description: To test this hypothesis, effector CD8^+ T cells were isolated and co-cultured with HLA-A2+ DC pulsed with CD133 peptides to induce antigen-specific CTLs. Antigens-specific T cell responses were evaluated by an IFN-γ ELISPOT assay.
Human monocyte-derived DC was generated using previously described methods. Briefly, monocytes were isolated from PBMC by magnetic immunoselection using EasySep human monocyte enrichment kit (Stem Cell Technologies) in accordance with the manufacturer's instructions and then cultured at […] in 20 ml of GMP CellGenix DC serum-free medium (Cat#20801-0500, Cellgenix) supplemented with 1000 unit/ml of recombinant human GM-CSF (Cat#AF-300-03, Peprotech, Inc) and recombinant human IL-4(Cat# AF-200-04, Peprotech, Inc). Cells were harvested after 3 or 6 days of culture. The DCs were washed and plated in 6-well plates at a concentration of 5×10^6 cells/well IFN-γ (1000 unit/ml) and monophosphoryl lipid A (MPLA, 20-50 μg/ml) was added into the wells to mature the DC for 24 hr or 48 hrs. Prior to some assays, DC was frozen and stored into liquid nitrogen.
In order to evaluate antigen-specific immune responses, CD8^+ T cells were isolated from fresh or frozen apheresis by positive selection using Dynabeads® CD8 Positive Isolation Kit (Life Technologies, Grand Island, N.Y.) and co-cultured with autologous mDC for four weeks. DCs were added weekly. Briefly, mDC was pulsed with synthetic peptides ([…]) for 6-8 hours at 37° C., and then treated with 20 μg/ml Mitomycin C (Sigma-Aldrich, St. Louis, Mo.) for 25 min at 37° C. and 5% CO2. […]
Antigen-specific immune responses were evaluated by the IFN-γ Elispot kit (BD Biosciences) following previously described methods. […] The colored spots, representing cytokine-producing cells, were counted under a dissecting microscope. The results were evaluated by an automated ELISPOT reader system using KS ELISPOT 4.3 software.

Sequence | antigen-specific T cell response (IFN-γ ELISPOT)
FLLPALIFAV (listed as Homo sapiens) [CD133p804, CD133 HLA-A2 peptide, position 804-813] | can efficiently recognize T2 pulsed with these antigens and boost the T cell immune response
ILSAFSVYV (listed as Homo sapiens) [CD133p405, CD133 HLA-A2 peptide, position 405-413] | can efficiently recognize T2 pulsed with these antigens and boost the T cell immune response
YLQWIEFSI (listed as Homo sapiens) [CD133p753, CD133 HLA-A2 peptide] | can efficiently recognize T2 pulsed with these antigens and boost the T cell immune response

Reference: patent US20140234350A1, “OVARIAN CANCER VACCINES AND VACCINATION METHODS” (Cedars-Sinai Medical Center, priority 2013, published 2014)
